# From patent publication US5776914A, “Prevention of hemolysis” (The Trustees of the University of Pennsylvania, priority 1994, dated 1998)
# Experiments:
# erythrocytes [1] = format: cell-based, human
# Experimental: FIG. 2 graphically illustrates the hemolytic effects of two hydroxyalkyl substituted cyclodextrins, 2-hydroxyethyl-β-cyclodextrin (β-CD-4-Et) and 2-hydroxypropyl-β-cyclodextrin (β-CD-4Pr) in comparison to the polyanionically substituted cyclodextrin β-cyclodextrin-tetradecasulfate sodium (β-CD-14s) on fresh human blood to which about 0.47% sodium citrate was added.
# The first sample contained erythrocytes and isotonic saline. This first sample served as a zero blank.
# erythrocytes [2] = conditions: cited from earlier work; for concentration above/at which hemolysis is induced: background statement; for hemolytic activity (in words): known in the art / literature
# erythrocytes [3] = assay: in vitro; format: cell-based, human
# in vitro = format: cell-based, human; conditions: human, erythrocytes
# erythrocytes [4] = conditions: 1.0 mM β-cyclodextrin, simultaneous use (Uekama 1981); cited from earlier work
# erythrocytes [5] = assay: inhibition of hemolysis induced by hemolytic agents (CPZ, CD, Pr-OH-CD, clay); conditions: for Hemolysis: 15 min
# Experimental: Unless explicitly stated otherwise, hemolytic activity was measured by the procedure described by I. Jodal et al., Proceedings of the Fourth International Symposium on Cyclodextrins, O. Huber and J. Szejtli, Eds., 421-425, Kluwer Academic Publishers, Boston (1988), which is incorporated herein by reference.
# For each of the examples which follow, sodium citrate was added about (to about 0.47%) to fresh human blood collected from healthy laboratory personnel. After centrifugation (10 min., 400×G) to separate the erythrocytes from other blood components, the supernatant erythrocyte fraction was recentrifuged and washed twice with isotonic phosphate buffer. The erythrocytes were diluted with that buffer to a 10% hematocrit value to obtain an erythrocyte suspension. Test material and erythrocytes were mixed as follows: about 3.6, 1.8, and 0.9 ml of a test material solution was mixed with about 0.4, 0.2 and 0.1 ml, respectively, of erythrocyte suspension and then incubated for about 15 minutes each at about 37° C., followed by two centrifugations for two minutes each at about 4000×G The resulting supernatants were measured for absorbance at 543 nm using a Gilford spectrophotometer. The percent of hemolysis was determined by reference to two control samples. The first sample contained erythrocytes and isotonic saline. This first sample served as a zero blank. The second sample was identical to the first but had been sonicated to provide a value for 100% hemolysis.
# solubility limit = format: physicochemical; conditions: 20° C.
compound,measurement,setting,value
2-hydroxyethyl-β-cyclodextrin [β-CD-4-Et],hemolytic effect (FIG. 2),erythrocytes [1],induced hemolysis at low concentrations
2-hydroxypropyl-β-cyclodextrin [β-CD-4Pr],hemolytic effect (FIG. 2),erythrocytes [1],induced hemolysis at low concentrations
"CN(C)CCCN1c2ccccc2Sc2ccc(Cl)cc21 [CPZ, chloropromazine]",concentration above/at which hemolysis is induced,erythrocytes [2],> 500 µM
same,hemolytic activity (in words),erythrocytes [2],hemolysis inducing agents
same,hemolysis (in words),erythrocytes [3]; concentrations approaching 0.5 mg/ml of CPZ,complete hemolysis
same,hemolysis (in words),"erythrocytes [3]; without CDS, about one-fifth of 2.0 mg/ml CPZ (Example 4)",substantially complete hemolysis
same,hemolysis at 0.25 h,in vitro; 0.5 mg/ml of CPZ,~100%
same,hemolysis at 0.25 h,in vitro; CPZ 0.15 mg/ml (Example 1),4.9%
same,hemolysis at 0.25 h,in vitro; CPZ 0.25 mg/ml (Example 2),7%
same,hemolysis at 0.25 h,in vitro; CPZ 0.30 mg/ml (Example 3),88%
same,hemolysis at 0.25 h,in vitro; CPZ 0.40 mg/ml (Example 4),96%
CC(C(=O)O)c1ccc(-c2ccccc2)c(F)c1 (stereo not shown) [flurbiprofen],hemolytic activity (in words),erythrocytes [2],hemolysis inducing agents
C=C[C@]1(C)C[C@@H](OC(=O)CSCCN(CC)CC)[C@]2(C)[C@H](C)CC[C@]3(CCC(=O)[C@H]32)[C@@H](C)[C@@H]1O [tiamulin],hemolytic activity (in words),erythrocytes [2],hemolysis inducing agents
"OC[C@H]1O[C@@H]2O[C@H]3[C@H](O)[C@@H](O)[C@@H](O[C@H]4[C@H](O)[C@@H](O)[C@@H](O[C@H]5[C@H](O)[C@@H](O)[C@@H](O[C@H]6[C@H](O)[C@@H](O)[C@@H](O[C@H]7[C@H](O)[C@@H](O)[C@@H](O[C@H]8[C@H](O)[C@@H](O)[C@@H](O[C@H]1[C@H](O)[C@H]2O)O[C@@H]8CO)O[C@@H]7CO)O[C@@H]6CO)O[C@@H]5CO)O[C@@H]4CO)O[C@@H]3CO [β-CD, β-cyclodextrin]",concentration above/at which hemolysis is induced,erythrocytes [2],2000 to 3000 µM
same,inhibition of hemolytic action of chlorpromazine,erythrocytes [4],inhibits the hemolytic action
same,onset of hemolysis (concentration inducing hemolysis),erythrocytes [1]; human,about 6 mg/ml
same,Hemolysis,"erythrocytes [5]; CPZ 0.5 mg/ml (1.5 mM) + CD 5.0 mg/ml (4.0 mM), molar ratio CD/CPZ 2.7 (Example 20)",6.5
same,Hemolysis,"erythrocytes [5]; CPZ 0.75 mg/ml (2.25 mM) + CD 7.5 mg/ml (6.0 mM), molar ratio CD/CPZ 2.7 (Example 21)",21
same,Hemolysis,"erythrocytes [5]; CPZ 1.0 mg/ml (3.0 mM) + CD 10 mg/ml (8.0 mM), molar ratio CD/CPZ 2.7 (Example 22)",80
same,protection from hemolysis by CPZ (in words),erythrocytes [5]; Example 20: CPZ 0.5 mg/ml + CD 5.0 mg/ml,considerable protection
same,protection from hemolysis by CPZ (in words),erythrocytes [5]; Examples 21 and 22: CPZ 0.75-1.0 mg/ml + CD 7.5-10 mg/ml,protection is lost
same,solubility,solubility limit,13 to 18 mg/mL
β-cyclodextrin-tetradecasulfate sodium [β-CD-14s],hemolytic effect (FIG. 2),erythrocytes [1],no undesirable hemolytic properties
same,reduction of the level of hemolysis,"erythrocytes [5]; CD about 15 mg/ml, β-CD-14s 50 mg/ml",about 41%
same,fold reduction of hemolysis,"erythrocytes [5]; CD about 15 mg/ml, β-CD-14s 150 mg/ml",about 30 fold
same,hemolytic activity of the composition with CPZ (in words),erythrocytes [5]; Example 23: CPZ 1.0 mg/ml + 50 mg/ml CDS,substantially reduced hemolytic activity
same,hemolytic effect (in words),"erythrocytes [5]; about 70 mg/ml CDS, about 2.0 mg/ml CPZ",negligible hemolytic effect
same,"fold improvement, that is, reduction in hemolysis","erythrocytes [5]; hydroxypropyl cyclodextrin 75 mg/ml, β-CD-14s 100 mg/ml",at least 20 fold
